| Compound | melting point |
| --- | --- |
| COc1cc(OC)c(F)c(N2Cc3cnc(N)nc3N(C3CCNCC3)C2=O)c1F.O=C(O)C(F)(F)F | 200 to 220 °C (dec.) |
| CNc1ncc2c(n1)N(C1CCNCC1)C(=O)N(c1c(F)c(OC)cc(OC)c1F)C2.O=C(O)C(F)(F)F | 135 to 140 °C |
| CCN(CC)CCCCNc1ncc2c(n1)N(C1CCCC1)C(=O)N(c1c(F)c(OC)cc(OC)c1F)C2 [Example 2, 1-Cyclopentyl-7-(4-diethylamino-butylamino)-3-(2,6-difluoro-3,5-dimethoxy-phenyl)-3,4-dihydro-1H-pyrimido[4,5-d]pyrimidin-2-one] | 132 to 133 °C |
| COc1cc(OC)c(F)c(N2Cc3cnc(NC[C@H](O)[C@@H](O)CO)nc3N(C3CCCC3)C2=O)c1F [Example 4, (S,S)-1-Cyclopentyl-3-(2,6-difluoro-3,5-dimethoxy-phenyl)-7-(2,3,4-trihydroxy-butylamino)-3,4-dihydro-1H-pyrimido[4,5-d]pyrimidin-2-one] | 160 °C (dec.) |
| COc1cc(OC)c(F)c(N2Cc3cnc(NC4CCC(O)CC4)nc3N(C3CCCC3)C2=O)c1F (stereo not drawn) [Example 5, 1-Cyclopentyl-3-(2,6-difluoro-3,5-dimethoxy-phenyl)-7-(4-hydroxy-cyclohexylamino)-3,4-dihydro-1H-pyrimido[4,5-d]pyrimidin-2-one] | 208 to 212 °C (dec.) |
| COc1cc(OC)c(F)c(N2Cc3cnc(NC(CO)CO)nc3N(C3CCCC3)C2=O)c1F [Example 6, 1-Cyclopentyl-3-(2,6-difluoro-3,5-dimethoxy-phenyl)-7-(2-hydroxy-1-hydroxymethyl-ethylamino)-3,4-dihydro-1H-pyrimido[4,5-d]pyrimidin-2-one] | 172 to 174 °C |
| COc1cc(OC)c(F)c(N2Cc3cnc(NCC(O)CN)nc3N(C3CCCC3)C2=O)c1F (stereo not drawn) [Example 7, 7-(3-Amino-2-hydroxy-propylamino)-1-cyclopentyl-3-(2,6-difluoro-3,5-dimethoxy-phenyl)-3,4-dihydro-1H-pyrimido[4,5-d]pyrimidin-2-one] | 167 °C (dec.) |
| COc1cc(OC)c(F)c(N2Cc3cnc(NCCOCCO)nc3N(C3CCCC3)C2=O)c1F [Example 8, 1-Cyclopentyl-3-(2,6-difluoro-3,5-dimethoxy-phenyl)-7-[2-(2-hydroxy-ethoxy)-ethylamino]-3,4-dihydro-1H-pyrimido[4,5-d]pyrimidin-2-one] | 160 to 163 °C |
| CCN(CC)CCCCNc1ncc2c(n1)N(C1CC1)C(=O)N(c1c(F)c(OC)cc(OC)c1F)C2 [Example 9, 1-Cyclopropyl-7-(4-diethylamino-butylamino)-3-(2,6-difluoro-3,5-dimethoxy-phenyl)-3,4-dihydro-1H-pyrimido[4,5-d]pyrimidin-2-one] | 139 to 141 °C |
| CCN(CC)CCCCNc1ncc2c(n1)N(CC)C(=O)N(c1c(F)c(OC)cc(OC)c1F)C2 [Example 10, 7-(4-Diethylamino-butylamino)-3-(2,6-difluoro-3,5-dimethoxy-phenyl)-1-ethyl-3,4-dihydro-1H-pyrimido[4,5-d]pyrimidin-2-one] | 140 to 141 °C |
| CCN1C(=O)N(c2c(F)c(OC)cc(OC)c2F)Cc2cnc(NC(CO)CO)nc21 [Example 11, 3-(2,6-Difluoro-3,5-dimethoxy-phenyl)-1-ethyl-7-(2-hydroxy-1-hydroxymethyl-ethylamino)-3,4-dihydro-1H-pyrimido[4,5-d]pyrimidin-2-one] | 168 to 172 °C |
| CCN1C(=O)N(c2c(F)c(OC)cc(OC)c2F)Cc2cnc(NC3CCC(O)CC3)nc21 (stereo not drawn) [Example 12, 3-(2,6-Difluoro-3,5-dimethoxy-phenyl)-1-ethyl-7-(4-hydroxy-cyclohexylamino)-3,4-dihydro-1H-pyrimido[4,5-d]pyrimidin-2-one] | 198 to 202 °C |
| COc1cc(OC)c(F)c(N2Cc3cnc(NCC(O)C(C)O)nc3N(C3CCCC3)C2=O)c1F (stereo not drawn) [Example 13, 1-Cyclopentyl-3-(2,6-difluoro-3,5-dimethoxy-phenyl)-7-(2,3-dihydroxy-butylamino)-3,4-dihydro-1H-pyrimido[4,5-d]pyrimidin-2-one] | 195 to 196 °C (dec.) |
| COc1cc(OC)c(F)c(N2Cc3cnc(NCC(O)CO)nc3N(C3CCCC3)C2=O)c1F (stereo not drawn) [Example 14, 1-Cyclopentyl-3-(2,6-difluoro-3,5-dimethoxy-phenyl)-7-(2,3-dihydroxy-propylamino)-3,4-dihydro-1H-pyrimido[4,5-d]pyrimidin-2-one] | 118 to 122 °C |
| COc1cc(OC)c(F)c(N2Cc3cnc(NCC(O)C(O)CN)nc3N(C3CCCC3)C2=O)c1F (stereo not drawn) [Example 15, 7-(4-Amino-2,3-dihydroxy-butylamino)-1-cyclopentyl-3-(2,6-difluoro-3,5-dimethoxy-phenyl)-3,4-dihydro-1H-pyrimido[4,5-d]pyrimidin-2-one] | 158 °C (dec.) |
| COc1cc(OC)c(F)c(N2Cc3cnc(NC[C@H](O)[C@@H](O)CO)nc3N(C3CCCC3)C2=O)c1 [Example 16, 1-Cyclopentyl-3-(2-fluoro-3,5-dimethoxy-phenyl)-7-([S,S]-2,3,4-trihydroxy-butylamino)-3,4-dihydro-1H-pyrimido[4,5-d]pyrimidin-2-one] | 86 to 88 °C |
| CCN1C(=O)N(c2c(F)c(OC)cc(OC)c2F)Cc2cnc(NCCOCCO)nc21 [Example 17, 3-(2,6-Difluoro-3,5-dimethoxy-phenyl)-1-ethyl-7-[2-(2-hydroxy-ethoxy)-ethylamino]-3,4-dihydro-1H-pyrimido[4,5-d]pyrimidin-2-one] | 159 to 160 °C |
| CCN1C(=O)N(c2c(F)c(OC)cc(OC)c2F)Cc2cnc(NCC(O)C(O)CN)nc21 (stereo not drawn) [Example 18, 7-(4-Amino-2,3-dihydroxy-butylamino)-3-(2,6-difluoro-3,5-dimethoxy-phenyl)-1-ethyl-3,4-dihydro-1H-pyrimido[4,5-d]pyrimidin-2-one] | 115 °C (dec.) |
| CCN1C(=O)N(c2c(F)c(OC)cc(OC)c2F)Cc2cnc(NCCCN(CCO)CCO)nc21 [Example 19, 7-{3-[Bis-(2-hydroxy-ethyl)-amino]-propylamino}-3-(2,6-difluoro-3,5-dimethoxy-phenyl)-1-ethyl-3,4-dihydro-1H-pyrimido[4,5-d]pyrimidin-2-one] | 128 to 129 °C |
| COc1cc(OC)c(F)c(N2Cc3cnc(NCC(O)CO)nc3N(C3CCCC3)C2=O)c1F (stereo not drawn) [Example 20, 1-Cyclopentyl-3-(2,6-difluoro-3,5-dimethoxy-phenyl)-7-(2,3-dihydroxy-propylamino)-3,4-dihydro-1H-pyrimido[4,5-d]pyrimidin-2-one] | 179 to 182 °C |
| CCN1C(=O)N(c2c(F)c(OC)cc(OC)c2F)Cc2cnc(NCC(O)C(C)O)nc21 (stereo not drawn) [Example 21, 3-(2,6-Difluoro-3,5-dimethoxy-phenyl)-7-(2,3-dihydroxy-butylamino)-1-ethyl-3,4-dihydro-1H-pyrimido[4,5-d]pyrimidin-2-one] | 171 to 173 °C |
| CNc1ncc2c(n1)N(C1CCC(C(=O)O)CC1)C(=O)N(c1c(F)c(OC)cc(OC)c1F)C2 (stereo not drawn) [Example 23, 4-[3-(2,6-Difluoro-3,5-dimethoxy-phenyl)-7-methylamino-2-oxo-3,4-dihydro-2H-pyrimido[4,5-d]pyrimidin-1-yl]-cyclohexanecarboxylic Acid] | 148 °C |
| COc1cc(OC)c(F)c(N2Cc3cnc(NC(CO)CO)nc3N(C3CCCC3)C2=O)c1 [Example 25, 1-Cyclopentyl-3-(2-fluoro-3,5-dimethoxy-phenyl)-7-(2-hydroxy-1-hydroxymethyl-ethylamino)-3,4-dihydro-1H-pyrimido[4,5-d]pyrimidin-2-one] | 194 to 195 °C |
| CCN1C(=O)N(c2cc(OC)cc(OC)c2F)Cc2cnc(NCCCCO)nc21 [Example 26, 1-Ethyl-3-(2-fluoro-3,5-dimethoxy-phenyl)-7-(4-hydroxy-butylamino)-3,4-dihydro-1H-pyrimido[4,5-d]pyrimidin-2-one] | 129 to 131 °C |
| COc1cc(OC)c(F)c(N2Cc3cnc(NC[C@H](O)CO)nc3N(C3CCCC3)C2=O)c1 [Example 27, (S)-1-Cyclopentyl-7-(2,3-dihydroxy-propylamino)-3-(2-fluoro-3,5-dimethoxy-phenyl)-3,4-dihydro-1H-pyrimido[4,5-d]pyrimidin-2-one] | 92 to 94 °C |
| CCN1C(=O)N(c2c(F)c(OC)cc(OC)c2F)Cc2cnc(NCC(O)CO)nc21 (stereo not drawn) [Example 31, 3-(2,6-Difluoro-3,5-dimethoxy-phenyl)-7-(2,3-dihydroxy-propylamino)-1-ethyl-3,4-dihydro-1H-pyrimido[4,5-d]pyrimidin-2-one] | 148 to 152 °C |
| CCOc1ccc(F)c(N2Cc3cnc(NCCCCN(CC)CC)nc3N(C3CCCC3)C2=O)c1F [Example 32, 1-Cyclopentyl-7-(4-diethylamino-butylamino)-3-(3-ethoxy-2,6-difluoro-phenyl)-3,4-dihydro-1H-pyrimido[4,5-d]pyrimidin-2-one] | 129 to 130 °C |
| COc1cc(OC)c(F)c(N2Cc3cnc(NC[C@@H](O)CO)nc3N(C3CCCC3)C2=O)c1 [Example 33, (R)-1-Cyclopentyl-7-(2,3-dihydroxy-propylamino)-3-(2-fluoro-3,5-dimethoxy-phenyl)-3,4-dihydro-1H-pyrimido[4,5-d]pyrimidin-2-one] | 89 to 91 °C |
| CCN1C(=O)N(c2cc(OC)cc(OC)c2F)Cc2cnc(NCCOCCO)nc21 [Example 34, 1-Ethyl-3-(2-fluoro-3,5-dimethoxy-phenyl)-7-[2-(2-hydroxy-ethoxy)-ethylamino]-3,4-dihydro-1H-pyrimido[4,5-d]pyrimidin-2-one] | 143 to 146 °C |
| COc1cc(OC)c(F)c(N2Cc3cnc(N[C@H]4CC[C@H](O)CC4)nc3N(C3CCCC3)C2=O)c1 [Example 35, 1-Cyclopentyl-3-(2-fluoro-3,5-dimethoxy-phenyl)-7-(trans-4-hydroxy-cyclohexylamino)-3,4-dihydro-1H-pyrimido[4,5-d]pyrimidin-2-one] | 108 to 110 °C |

— patent US7196090B2, “Kinase inhibitors” (Warner-Lambert Company, priority 2002, dated 2007)
